In US9901646B2, “Methods for induction of antigen-specific immune tolerance” (École Polytechnique Fédérale de Lausanne (EPFL), priority 2010, dated 2018):
Where no end group is shown, it is not given here. 8‑arm PEG = 8-arm polyethylene glycol (PEG) dendrimer, conjugated via pyridyldisulfide groups to cysteine thiols

Assays:
circulating erythrocytes = test: 8-arm PEG constructs binding to circulating erythrocytes after intravenous injection, flow cytometry; assay type: in vivo, mouse; conditions: flow cytometry
Description: FIG. 17 presents experimental results depicting erythrocyte cell-surface half-life of 8-arm PEG-ERY1 (filled circles) and 8-arm PEG-MIS (empty boxes), determined by flow cytometry.

[1] = tested on: human erythrocytes (type A and B); test: Binding of bacteria displaying peptide to cells, flow cytometry; conditions: peptide displayed on bacteria, 1 h at 4° C.
Method: Method: To characterize specificity, individual sequenced clones were analyzed using cytometry for binding toward human erythrocytes (type A and B), mouse erythrocytes, HEK293T cells and HUVECs. For binding assays, 10^6 mammalian cells were scanned on an AccuriA6 after co-incubation with 5×10^7 bacteria for 1 h at 4° C. followed by three washes in HFS (5% HSA, 2% FBS in PBS). The percentage of cells with green bacteria bound was calculated using FLOWJO Software.

human erythrocytes = test: Erythrocyte binding of APC-peptide conjugates by flow cytometry; conditions: 1 μM APC-peptide conjugate, 37 C, 45 min
Method: Peptides were ordered and custom-synthesized via standard fmoc solid-phase peptide synthesis from PolyPeptide Group (Strasbourg, France). 10 equivalents of peptide dissolved in 3 M guanidine-HCl were added to 2 mg/mL maleimide-activated APC (InnovaBiosciences, Cambridge, UK) in PBS. Following a 4 h incubation at 4° C., the reaction was desalted on a 2 mL ZEBA Desalting Column (Thermo Scientific) and stored at 4° C.
Freshly isolated human blood was dissolved 100-fold into PBS supplemented with 20 mg/mL BSA. 5×10^5 erythrocytes were added to 150 μL of 1 μM APC-peptide conjugate and incubated at 37 C for 45 min. Cells were washed extensively in PBS+20 mg/mL BSA, and analyzed for APC fluorescence on a CyAn ADP Flow cytometer (Beckman Coulter).

glycophorin-A (GYPA) = biological target: T1, glycophorin-A (GYPA) (Mus musculus, UniProt P14220); test: Affinity pull-down with biotinylated ERY1 peptide and photoactivatable crosslinker, Western blot; assay type: binding; conditions: whole erythrocytes, UV crosslinking, streptavidin and anti-GYPA Western blot
T1 construct: GYPA is naturally expressed and presented as part of a complex comprised of several membrane and cytoskeletal proteins; endogenous in cells; host or cells: whole mouse erythrocytes
Method: Method: The ERY1 (H2N-WMVLPWLPGTLDGGSGCRG-CONH2) (SEQ ID NO:19) and mismatch (H2N-PLLTVGMDLWPWGGSGCRG-CONH2) (SEQ ID NO:20) peptides were synthesized using standard solid-phase f-moc chemistry on TGR resin. The peptide was cleaved from the resin in 95% tri-fluoroacetic acid, 2.5% ethanedithiol, 2.5% water, and precipitated in ice-cold diethyl ether. Purification was conducted on a Waters preparative HPLC-MS using a C18 reverse phase column.
In brief, peptides were solubilized in PBS/DMF and reacted with 1.05 equivalents of Mts-atf-biotin overnight at 4° C. Following clarification of the reaction by centrifugation, biotinylated peptide was incubated with erythrocytes at in PBSA-50 for 1 h at 37° C., cells were washed twice in fresh PBS, and were UV irradiated at 365 nm for 8 min at room temperature. Cells were lysed by sonication and the lysate was purified using streptavidin-coated magnetic beads (Invitrogen). The eluate was run on an SDS-PAGE and transferred to a PVDF membrane, and immunoblotted with streptavidin-HRP (R&D Systems) or anti-mouse GYPA.

[2] = mouse, in vivo, iv, 150 ug
Method: The Swiss Vaud Veterinary Office previously approved all animal procedures. While under anesthesia with ketamine/xylasine, the mouse tail was warmed in 42° C. water and 150 μg of protein was injected in a 100 μL volume directly into the tail vein. Care was taken to ensure mice were kept at 37° C. while under anesthesia. Blood was drawn by a small scalpel incision on the base of the tail, and diluted 10-fold in PBSA-5, 10 mM EDTA, and stored at −20° C. until further analysis. Blood samples were analyzed for MBP concentration by sandwich ELISA. In brief, monoclonal mouse anti-MBP was used as the capture antibody, polyclonal rabbit anti-MBP as the primary antibody, and goat anti-rabbit-HRP as the secondary antibody. The data were analyzed in PRISM4 using standard pharmacokinetic compartmental analysis, using Eq. 1 and Eq. 2 A=A0e^−Kt Equation 1: Standard one-compartment model
where A is the amount of free drug in the body at time t and A0 is the initial amount of drug at time zero. A=ae^−at+be^−βt Equation 2: Standard two-compartment model
where A is the amount of free drug in the central compartment at time t.

[3] = tested on: mouse erythrocytes (glycophorin-A on the erythrocyte surface); test: Binding of OVA conjugates to erythrocytes in vitro, flow cytometry, equilibrium binding
Description: To obtain strong and specific biophysical binding of an antigen to erythrocytes, we used a synthetic 12 amino acid peptide (ERY1) that we discovered by phage display to specifically bind to mouse glycophorin-A (Kontos and Hubbell, 2010). In this investigation, the model antigen OVA was used with a transgenic mouse strain (OT-I) whose CD8^+ T cell population expresses the T cell receptor specific for the MHC I immunodominant OVA peptide SIINFEKL (SEQ ID NO:3). The ERY1 peptide was chemically conjugated to OVA to create an OVA variant (ERY1-OVA) that binds mouse erythrocytes with high affinity and specificity (FIG. 8a). High-resolution confocal microscopy confirmed earlier observations concerning ERY1 binding (Kontos and Hubbell, 2010), namely localization to the cell membrane equatorial periphery, with no intracellular translocation of the ERY1-conjugated protein.

erythrocytes (CD45−) = test: In vivo binding to circulating erythrocytes after intravenous administration; set-up: species or system mouse
Method: 150 μg of ERY1-OVA or OVA in 0.9% saline (B. Braun) in a volume of 100 μL was injected intravenously into the tail of 8-12 week old female C57BL/6 mice while under anesthesia with isoflurane. […] At predetermined time points, 5 μL of blood was taken from a small incision on the tail, diluted 100-fold into 10 mM EDTA in PBS, washed three times with PBS with 10 mg/mL BSA, and analyzed for OVA content by flow cytometry and ELISA. OVA was quantified by sandwich ELISA, using a mouse monoclonal anti-OVA antibody (Sigma) for capture, a polyclonal rabbit anti-OVA antibody (AbD SEROTEC) for detection, a goat anti-rabbit-IgG-HRP antibody (BioRad) for final detection, followed by TMB substrate (GE Life Sciences). Hematological characterization was performed on an ADVIVA 2120 Hematology System (Siemens). Erythrocyte-bound ERY1-GST was detected by incubating labeled cells with goat anti-GST (GE Healthcare Life Sciences), followed by incubation with AlexaFluor488 donkey anti-goat (Invitrogen), and analyzed by flow cytometry. For biodistribution studies, 20 μg of ERY1-APC or MIS-APC was injected intravenously into the tail vein of 8-12 week old female C57BL/6 mice as described above. Mice were sacrificed at predetermined time points, and the spleen, blood, and liver were removed. […]

With “8-arm PEG-MIS: 8-arm PEG conjugate harboring the non-specific MIS peptide (H-PLLTVGMDLWPWGGSGC(8‑arm PEG)RG-NH2; also: 8-arm PEG conjugate (multivalent), linkage to PEG not given here) [reference compound]” as the molecule, how does the “binding to circulating erythrocytes upon intravenous injection” value (circulating erythrocytes) read?
Its value is “not”.

For “GQSGHWHCQGPFANWVGSSGGS (Erythrocyte Binding Peptide) [ERY123]”, which “binding to human erythrocytes, specificity as compared to 293T cells and HUVECs” value (“binding … compared to 293T cells and HUVECs” for short) [1] is on record?
The value was “bound specifically to human erythrocytes”.

What about the “binding to human erythrocytes as conjugates of APC” value (“binding … of APC” for short) (human erythrocytes) of the same molecule?
The value was “bound to human erythrocytes”.

Which “binding … compared to 293T cells and HUVECs” value [1] does the source give for “GQSGQFCTVIYNTYTCVPSSGSSGGS (Erythrocyte Binding Peptide) [ERY141]” here?
The value was “bound specifically to human erythrocytes”.

What about the “binding … of APC” value (human erythrocytes) of the same molecule?
The value was “bound to human erythrocytes”.

For “GQSGQPNSRWIYMTPLSPGIYRGSSGGS (Erythrocyte Binding Peptide) [ERY19]”, which “binding … compared to 293T cells and HUVECs” value [1] is on record?
The value was “bound specifically to human erythrocytes”.

Which “binding … compared to 293T cells and HUVECs” value [1] does the source give for “GQSGQSVWYSSRGNPLRCTGGSSGGS (Erythrocyte Binding Peptide) [ERY162]” here?
Its value is “bound specifically to human erythrocytes”.

Which “binding … compared to 293T cells and HUVECs” value [1] does the source give for “GQSGQTYFCTPTLLGQYCSVGSSGGS (Erythrocyte Binding Peptide) [ERY64]” here?
The value was “bound specifically to human erythrocytes”.

What about the “binding … of APC” value (human erythrocytes) of the same molecule?
Its value is “bound to human erythrocytes”.

Which “binding … compared to 293T cells and HUVECs” value [1] does the source give for “GQSGQYICTSAGFGEYCFIDGSSGGS (Erythrocyte Binding Peptide) [ERY59]” here?
The value was “bound specifically to human erythrocytes”.

With “PLLTVGMDLWPW (Control peptide) [mismatch peptide, same amino acid residues as ERY1, scrambled, reference compound]” as the molecule, how does the “molecular target on the erythrocyte membrane / conjugation to erythrocyte proteins” value (glycophorin-A (GYPA)) read?
Its value is “failed to conjugate to any erythrocyte proteins”.

Which “molecular target on the erythrocyte membrane / conjugation to erythrocyte proteins” value (glycophorin-A (GYPA)) does the source give for “WMVLPWLPGTLD (not fully specified (C-terminus)) [ERY1, synthesized as H2N-…-CONH2]” here?
The value was “glycophorin-A (GYPA)”.

Which results are given for maltose binding protein [wild-type MBP]?
half-life [2]: 55.2 min; α half life [2]: 24.6 min; β half life [2]: 66.6 min

B1: OVA conjugated with only the crosslinking molecule: OVA carrying only the SMCC crosslinker (conjugate)
chain: GSIGAASMEFCFDVFKELKVHHANENIFYCPIAIMSALAMVYLGAKDSTRTQINKVVRFDKLPGFGDSIEAQCGTSVNVHSSLRDILNQITKPNDVYSFSLASRLYAEERYPILPEYLQCVKELYRGGLEPINFQTAADQARELINSWVESQTNGIIRNVLQPSSVDSQTAMVLVNAIVFKGLWEKAFKDEDTQAMPFRVTEQESKPVQMMYQIGLFRVASMASEKMKILELPFASGTMSMLVLLPDEVSGLEQLESIINFEKLTEWTSSNVMEERKIKVYLPRMKMEEKYNLTSVLMAMGITDVFSSSANLSGISSAESLKISQAVHAAHAEINEAGREVVGSAEAGVDAASVSEEFRADHPFLFCIKHIATNAVLFFGRCVSP
With B1 as the molecule, how does the “binding to erythrocytes (flow cytometry)” value [3] read?
Its value is “did not display any measureable affinity”.

B2: ovalbumin (protein)
chain: GSIGAASMEFCFDVFKELKVHHANENIFYCPIAIMSALAMVYLGAKDSTRTQINKVVRFDKLPGFGDSIEAQCGTSVNVHSSLRDILNQITKPNDVYSFSLASRLYAEERYPILPEYLQCVKELYRGGLEPINFQTAADQARELINSWVESQTNGIIRNVLQPSSVDSQTAMVLVNAIVFKGLWEKAFKDEDTQAMPFRVTEQESKPVQMMYQIGLFRVASMASEKMKILELPFASGTMSMLVLLPDEVSGLEQLESIINFEKLTEWTSSNVMEERKIKVYLPRMKMEEKYNLTSVLMAMGITDVFSSSANLSGISSAESLKISQAVHAAHAEINEAGREVVGSAEAGVDAASVSEEFRADHPFLFCIKHIATNAVLFFGRCVSP
notes: model antigen
For B2, which “binding to circulating eryptotic (annexin-V+) and healthy (annexin-V−) erythrocytes” value (erythrocytes (CD45−)) is on record?
The value was “nonbinding”.
